Results reported in patent US9546358B2, “Compositions and methods for reducing background DNA amplification” (New England Biolabs, Inc., priority 2012, dated 2017).

Experiments:
[1] = tested on: non-template amplification; assay: LAMP assay, suppression of non-template (background) amplification, real-time SYTO-9 fluorescence; type: biochemical; settings: for effect on non-template amplification: lower temperature; for Minimum effective concentration of individual additive (Compound A) required for suppression of non-template amplification / Minimum effective concentration of individual additive (Compound B) required for suppression of non-template amplification: single additive, 100% suppression
Protocol: (§1) • 0.4-8 ng/μl DNA polymerase (Bst 2.0-Sso7d) in LAMP Buffer [20 mM Tris, 125 mM KCl, 10 mM (NH4)2SO4, 8 mM MgSO4, 1.4 mM dNTPs, 0.1% Tween-20® (Sigma-Aldrich, St. Louis, Mo.), pH 8.8 25° C.] • 1.6 μM Forward internal primer (FIP)/Back internal primer (BIP), 0.2 μM F3/B3, 0.4 μM LoopF/LoopB • 5 ng λ DNA or none (non-template control) per reaction (25 μl)
(§2) The additive solution was added to the amplification mixture to provide a final concentration in the range of 0-40% v/v where the stock solution of additive was solubilized in water. For example, concentrations of isobutyramide in the range of 0.005 M-1.5 M, 0.01 M-1.2 M, or 0.01 M-0.7 M and N-methylformamide in the range of 0.01-2 M, 0.02 M-1.5 M, or 0.02 M-1 M (combined for example, at ratios of 10:1, 8:1, 6:1, 4:1, 2:1, 1.8:1, 1.6:1, 1.4:1, 1.2:1, 1:1 of N-methylformamide:isobutyramide) were tested at various temperatures. Other examples included in the final reaction mixture 0.02 M-1.3 M propionamide, 0.2 M-2 M Urea, 0.1 M-3.8 M formamide, 0.05 M-2 M acetamide, 0.02 M-0.5 M valeramide, 0.01 M-2 M N,N-dimethylformamide, 0.01 M-2 M N,N-diethylformamide, 0.01 M-1.8 M N,N-dimethylbutyramide.
(§3) The extent of amplification of lambda DNA (unless otherwise specified) with a LAMP amplicon size of 100-200 bases was measured by real-time fluorescence using 2 μM SYTO-9® (Life Technologies, Carlsbad, Calif.) double strand DNA intercalating dye (Nagamine, et al., Molecular and Cellular Probes, 16:223-229 (2002)) using the following primers: […]
The reduction in background fluorescence from non-template amplification was quantitatively assessed. The total reaction time for LAMP is 90 minutes. In the absence of additives, a positive signal for an amplification product of a template could be detected at about 3 minutes-15 minutes at temperatures 55° C.-72° C. and for a non-template signal at 8 minutes-30 minutes at temperatures below about 71° C. When a mixture of additives was included in the amplification mixture, a positive signal for template amplification is still seen at 3 minutes-15 minutes but no signal is seen even after 85 minutes for non-template reactions. This is recorded however as the maximum time to illustrate the synergistic effect. […] In all cases, the effect of the ratio of components of the mixture at specific molar concentrations is greater than the effect of each component small molecule individually tested at the same molar concentration and temperature (exemplified by data in Table 2).
The synergistic effect of mixing a carboxamide and N-alkylcarboxamide was examined.

[2] = tested on: lambda DNA; assay: LAMP assay, target (template) amplification, real-time SYTO-9 fluorescence; type: biochemical, lambda phage
Protocol: as §1, §2, §3
The reduction in background fluorescence from non-template amplification was quantitatively assessed. The total reaction time for LAMP is 90 minutes. In the absence of additives, a positive signal for an amplification product of a template could be detected at about 3 minutes-15 minutes at temperatures 55° C.-72° C. and for a non-template signal at 8 minutes-30 minutes at temperatures below about 71° C. […] This is recorded however as the maximum time to illustrate the synergistic effect. […]

[3] = isobutyramide increased above 0.4 M
[4] = N-methylformamide increased above 1.0 M

Structure (SMILES): CC(C)C(N)=O [IBA, isobutyramide]
- suppression of non-template amplification ([1]; 0.4 M isobutyramide alone, 60 °C): ~1%
- suppression of non-template amplification ([1]; 0.4 M isobutyramide alone, 65 °C): ~10%
- effect on non-template amplification [1, 3]: did not affect the non-template amplification at lower temperature
- Minimum effective concentration of individual additive (Compound A) required for suppression of non-template amplification ([1]; 65 °C): 0.41 M
- effect on target amplification [2, 3]: further inhibit the target amplification

Structure (SMILES): CNC=O [NMF, N-methylformamide]
- suppression of non-template amplification ([1]; 1.1 M N-methylformamide alone, 60 °C): ~1%
- suppression of non-template amplification ([1]; 1.1 M N-methylformamide alone, 65 °C): ~10%
- effect on non-template amplification [1, 4]: did not affect the non-template amplification at lower temperature
- effect of increasing amounts of single additive on non-template amplification (time to threshold) ([1]; increasing amounts of 3.2 M N-methylformamide, FIG. 6A): no beneficial effect observed
- Minimum effective concentration of individual additive (Compound B) required for suppression of non-template amplification ([1]; 65 °C): 1.1 M
- effect on target amplification ([2]; 1.1 M N-methylformamide, single additive, FIG. 2B): inhibited target amplification above 68 °C
- effect on target amplification [2, 4]: further inhibit the target amplification

Structure (SMILES): CN(C)C=O [DMF, N,N-dimethylformamide]
- Minimum effective concentration of individual additive (Compound B) required for suppression of non-template amplification ([1]; 65 °C): 0.77 M

Structure (SMILES): CCCC(=O)N(C)C [DMB, N,N-dimethylbutyramide]
- Minimum effective concentration of individual additive (Compound A) required for suppression of non-template amplification ([1]; 65 °C): 0.24 M

Structure (SMILES): CCC(N)=O [PIA, propionamide]
- effect of increasing amounts of single additive on non-template amplification (time to threshold) ([1]; increasing amounts of 1.7 M propionamide, FIG. 6B): no beneficial effect observed
- Minimum effective concentration of individual additive (Compound A) required for suppression of non-template amplification ([1]; 65 °C): 0.80 M

Structure (SMILES): CCCCC(N)=O [VA, valeramide]
- Minimum effective concentration of individual additive (Compound A) required for suppression of non-template amplification ([1]; 65 °C): 0.20 M

Structure (SMILES): NC=O [FA, formamide]
- Minimum effective concentration of individual additive (Compound A) required for suppression of non-template amplification ([1]; 65 °C): 1.8 M

Structure (SMILES): CCN(C=O)CC [DEF, N,N-diethylformamide]
- Minimum effective concentration of individual additive (Compound B) required for suppression of non-template amplification ([1]; 65 °C): 0.26 M
